# From ChEMBL document CHEMBL1201862, “PubChem BioAssay data set” (2004)
#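 Dose response: 5 concentrations. Exposure: 48 h. Format: 96-well plates. Endpoint: linear interpolation; highest concentration if not reached. GI50 marks 50% less growth.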 Calls of active or inactive are those of the source. Cut-off read from the data, not from the text of the source: active = GI50 up to about 1.1 µM and inactive = higher.
# Legend:
# Test in all cases: NCI anticancer screen, dose series, 48 h
# Malme-3M = system: Malme-3M
# NCI-H522 = system: NCI-H522
# M14 = system: M14
# CAKI-1 = system: CAKI-1
# SF-539 = system: SF-539
# HOP-92 = system: HOP-92
# CCRF-CEM = system: CCRF-CEM
# IGROV-1 = system: IGROV-1
# MDA-N = system: MDA-N
# UACC-62 = system: UACC-62
# HCC 2998 = system: HCC 2998
# HOP-62 = system: HOP-62
# MCF7 = system: MCF7
# NCI-H226 = system: NCI-H226
# RXF 393 = system: RXF 393
# OVCAR-8 = system: OVCAR-8
# SNB-75 = system: SNB-75
# ACHN = system: ACHN
# SK-MEL-2 = system: SK-MEL-2
# UO-31 = system: UO-31
Compound,GI50 (Malme-3M),GI50 (NCI-H522),GI50 (M14),GI50 (CAKI-1),GI50 (SF-539),GI50 (HOP-92),GI50 (CCRF-CEM),GI50 (IGROV-1),GI50 (MDA-N),GI50 (UACC-62),GI50 (HCC 2998),GI50 (HOP-62),GI50 (MCF7),GI50 (NCI-H226),GI50 (RXF 393),GI50 (OVCAR-8),GI50 (SNB-75),GI50 (ACHN),GI50 (SK-MEL-2),GI50 (UO-31)
Cc1ccc(S(=O)(=O)Nc2cc(O)nc3c2CCC3)cc1,> 100 µM (inactive),> 100 µM (inactive),> 100 µM (inactive),> 100 µM (inactive),> 100 µM (inactive),> 100 µM (inactive),> 100 µM (inactive),> 100 µM (inactive),> 100 µM (inactive),> 100 µM (inactive),> 100 µM (inactive),> 100 µM (inactive),> 100 µM (inactive),> 100 µM (inactive),> 100 µM (inactive),> 100 µM (inactive),> 100 µM (inactive),> 100 µM (inactive),> 100 µM (inactive),> 100 µM (inactive)
Cc1ccc2cccc(OC(=O)c3cc4c(cc3Cl)Sc3nccn3S4(=O)=O)c2n1,17.5 µM (inactive),9.82 µM (inactive),8.79 µM (inactive),26.6 µM (inactive),5.61 µM (inactive),14.6 µM (inactive),2.5 µM (inactive),6.37 µM (inactive),14.4 µM (inactive),14.7 µM (inactive),5.75 µM (inactive),0.661 µM (active),5.71 µM (inactive),21 µM (inactive),5.16 µM (inactive),4.71 µM (inactive),9.66 µM (inactive),10.5 µM (inactive),11.5 µM (inactive),2.05 µM (inactive)
CC[C@@]1(O)C(=O)OCc2c1cc1n(c2=O)Cc2c-1nc1ccccc1c2/C=N\NC(=O)C(N)Cc1c[nH]cn1 (stereo partly specified),2.53 µM (inactive),0.372 µM (active),0.324 µM (active),0.147 µM (active),0.0528 µM (active),1.1 µM (active),0.0214 µM (active),3.75 µM (inactive),1.9 µM (inactive),0.0723 µM (active),1.51 µM (inactive),0.0524 µM (active),0.0885 µM (active),0.571 µM (active),0.861 µM (active),0.184 µM (active),0.067 µM (active),0.043 µM (active),7.74 µM (inactive),0.348 µM (active)
CCCCCCCCCCCCO[PH](=O)OCCCCCCCCCCCC,> 100 µM (inactive),> 100 µM (inactive),> 100 µM (inactive),–,> 100 µM (inactive),> 100 µM (inactive),> 100 µM (inactive),> 100 µM (inactive),> 100 µM (inactive),> 100 µM (inactive),> 100 µM (inactive),> 100 µM (inactive),> 100 µM (inactive),> 100 µM (inactive),> 100 µM (inactive),> 100 µM (inactive),> 100 µM (inactive),> 100 µM (inactive),> 100 µM (inactive),> 100 µM (inactive)
COc1ccc(/C=C/C(=O)c2cc(C(C)(C)C)c(O)c(C(C)(C)C)c2)cc1OC,61.2 µM (inactive),5.61 µM (inactive),25.3 µM (inactive),10.7 µM (inactive),12.7 µM (inactive),16.6 µM (inactive),2.83 µM (inactive),17.7 µM (inactive),2.94 µM (inactive),10 µM (inactive),2.27 µM (inactive),23 µM (inactive),4.29 µM (inactive),10.7 µM (inactive),2.86 µM (inactive),10.5 µM (inactive),3.01 µM (inactive),14.6 µM (inactive),3.48 µM (inactive),5.16 µM (inactive)
CCOP(=O)(OCC)/C(C#N)=C/c1c(C)[nH]c2ccccc12,> 100 µM (inactive),> 100 µM (inactive),> 100 µM (inactive),> 100 µM (inactive),> 100 µM (inactive),> 100 µM (inactive),> 100 µM (inactive),> 100 µM (inactive),> 100 µM (inactive),> 100 µM (inactive),> 100 µM (inactive),> 100 µM (inactive),> 100 µM (inactive),> 100 µM (inactive),> 100 µM (inactive),> 100 µM (inactive),> 100 µM (inactive),> 100 µM (inactive),–,30.4 µM (inactive)
C(=C(c1ccc(OC2CCCCO2)cc1)c1ccc(OC2CCCCO2)cc1)c1ccccc1 (stereo unspecified),0.863 µM (active),1.09 µM (active),0.697 µM (active),0.637 µM (active),1.53 µM (inactive),0.524 µM (active),0.246 µM (active),0.524 µM (active),0.634 µM (active),0.547 µM (active),0.723 µM (active),0.925 µM (active),0.0995 µM (active),1.21 µM (inactive),1.03 µM (active),0.598 µM (active),0.605 µM (active),1.06 µM (active),1.4 µM (inactive),0.895 µM (active)
O=C1C(/N=N/c2ccc(-c3nc4ccccc4o3)cc2)NC(=S)N1c1ccccc1 (stereo unspecified),> 100 µM (inactive),60.4 µM (inactive),62.7 µM (inactive),90.8 µM (inactive),> 100 µM (inactive),59.6 µM (inactive),0.0479 µM (active),57.3 µM (inactive),32.8 µM (inactive),80.2 µM (inactive),> 100 µM (inactive),> 100 µM (inactive),33.2 µM (inactive),> 100 µM (inactive),83.8 µM (inactive),60.3 µM (inactive),62.4 µM (inactive),> 100 µM (inactive),> 100 µM (inactive),> 100 µM (inactive)
COc1cccc(/C=C\c2ccc(O)cc2)c1,20.2 µM (inactive),7.06 µM (inactive),17.5 µM (inactive),17.7 µM (inactive),13.7 µM (inactive),18.2 µM (inactive),–,26.7 µM (inactive),21.1 µM (inactive),10.2 µM (inactive),23.8 µM (inactive),34.6 µM (inactive),26.1 µM (inactive),28.2 µM (inactive),19.5 µM (inactive),12.3 µM (inactive),24 µM (inactive),3.64 µM (inactive),25.8 µM (inactive),5.4 µM (inactive)
CCN(C(C)=O)c1cnc(/C=N/NC(N)=S)c2ccccc12,11.4 µM (inactive),2.95 µM (inactive),2.58 µM (inactive),3.3 µM (inactive),2.93 µM (inactive),> 40.4 µM (inactive),2.54 µM (inactive),2.76 µM (inactive),7.01 µM (inactive),3.3 µM (inactive),11 µM (inactive),5.61 µM (inactive),2.81 µM (inactive),3.44 µM (inactive),17.9 µM (inactive),2.29 µM (inactive),18.7 µM (inactive),1.76 µM (inactive),–,1.81 µM (inactive)
COc1ccccc1N(CN1C(=O)CCC1C(=O)O)C(C)=O (stereo unspecified),> 100 µM (inactive),> 100 µM (inactive),> 100 µM (inactive),> 100 µM (inactive),> 100 µM (inactive),> 100 µM (inactive),–,0.138 µM (active),> 100 µM (inactive),> 100 µM (inactive),> 100 µM (inactive),> 100 µM (inactive),> 100 µM (inactive),> 100 µM (inactive),74.5 µM (inactive),> 100 µM (inactive),> 100 µM (inactive),> 100 µM (inactive),> 100 µM (inactive),> 100 µM (inactive)
C=C(Cl)C(C)(Cl)CCC(Cl)C(C)(C)Cl (stereo unspecified),38.2 µM (inactive),23.1 µM (inactive),70.8 µM (inactive),> 100 µM (inactive),> 100 µM (inactive),25.9 µM (inactive),30.3 µM (inactive),47.5 µM (inactive),44.2 µM (inactive),–,> 100 µM (inactive),> 100 µM (inactive),37.8 µM (inactive),42.3 µM (inactive),35.1 µM (inactive),–,41.9 µM (inactive),> 100 µM (inactive),27.2 µM (inactive),37.6 µM (inactive)
c1ccc(CSCCc2ccncc2)cc1,> 100 µM (inactive),69 µM (inactive),> 100 µM (inactive),< 0.01 µM (active),> 100 µM (inactive),15.2 µM (inactive),> 100 µM (inactive),> 100 µM (inactive),> 100 µM (inactive),> 100 µM (inactive),> 100 µM (inactive),> 100 µM (inactive),> 100 µM (inactive),> 100 µM (inactive),> 100 µM (inactive),> 100 µM (inactive),–,> 100 µM (inactive),41.5 µM (inactive),> 100 µM (inactive)
CC[N+]1(C)CCC(O)(c2ccc(C)cc2)C(C(=O)c2ccc(C)cc2)C1 (stereo unspecified),26.1 µM (inactive),23.7 µM (inactive),44.8 µM (inactive),23.9 µM (inactive),66.8 µM (inactive),23 µM (inactive),22 µM (inactive),> 100 µM (inactive),> 100 µM (inactive),> 100 µM (inactive),> 100 µM (inactive),> 100 µM (inactive),16.4 µM (inactive),> 100 µM (inactive),35.4 µM (inactive),34.2 µM (inactive),–,23.3 µM (inactive),> 100 µM (inactive),> 100 µM (inactive)
